Measured values reported in patent publication US20040044087A1, “Use of hop acids in fuel ethanol production” (priority 1999, published 2004).

How the values were obtained:
lactobacillus = conditions: stated as fact for comparison with ISOHOP; cited from earlier work
Lb. fermentum [1] = assay: Sugar beet molasses wort fermentation contaminated with Lb. fermentum; assay type: cell-based, Lactobacillus fermentum; conditions: 10^6 CFU/mL, Virginiamycin 0.5 ppm
Procedure: (§1) The clean breed strains were kept frozen at −101.2° F. in MRS-broth containing 8%-glycerol and were inoculated from there in 10 mL cap tubes containing 2 mL MRS-broth. The headspace of each tube was flushed with filter sterilized (0.45 μm pore size membrane filter) CO2-gas and the caps were sealed with paraffin wax coated film. The tubes were incubated in a controlled environmental shaker at 100 rpm at 86° F. (Lb. brevis) respectively 96.8° F. (Lb. fermentum). […] A filter sterilized (0.45 μm pore size membrane filter) 5 μl aliquot of the MRS-cell suspension for inoculation was determined by high performance liquid chromatography using a ProntoSIL 120-3-C18 AQ column which analyzes sugars, organic acids and alcohol, making sure glucose in the MRS-medium would be totally consumed and determining the amount of lactic acid an acetic acid added to fresh wort. Appropriate quantities of cell suspension were added to give a total of 500 g mash in laboratory fermentation flasks and initial viable bacterial cell numbers of 10^6 CFU/mL mash. The pH-value of the wort was afterwards readjusted to pH 5.2 if necessary. […]
(§2) The content of sucrose in beet molasses was determined by polarimeter after clarification with lead acetate. […]

Lb. brevis = assay: Sugar beet molasses wort fermentation contaminated with Lb. brevis; assay type: cell-based, Lactobacillus brevis; conditions: 10^6 CFU/mL, Virginiamycin 0.5 ppm
Procedure: as §1, §2

Lb. fermentum [2] = assay: Wheat mash fermentation contaminated with Lb. fermentum; assay type: cell-based, Lactobacillus fermentum; conditions: Example 5, inoculated 10^7 CFU/mL; Penicillin G 0.25 ppm, Virginiamycin 0.5 ppm, hop products at effective concentration
Procedure: The clean breed strains were kept frozen at −101.2° F. in MRS-broth containing 8%-glycerol and were inoculated from there in 10 mL cap tubes containing 2 mL MRS-broth. The headspace of each tube was flushed with filter sterilized (0.45 μm pore size membrane filter) CO2-gas and the caps were sealed with paraffin wax coated film. The tubes were incubated in a controlled environmental shaker at 100 rpm at 86° F. (Lb. brevis) and 96.8° F. (Lb. fermentum). After 12 hours 1 mL of these preparatory cultures were each transferred into 10 mL cap tubes containing 9 mL MRS-broth and incubated for another 24 hours, afterwards transferred to 100 mL screw cap flasks containing 90 mL of MRS-broth and again incubated at the appropriate temperature for 24 hours. These portions were transferred to 1 L screw cap flasks, containing 750 mL MRS-broth and were again incubated for 24 hours.
For inoculation of wheat mash the bacterial cells were aseptically harvested in sterile centrifugal tubes by centrifugation at 10,200×g for 15 minutes at 4° C. […]
Cell numbers of the organisms were estimated using a Beck photometer. […] Appropriate quantities of the concentrated cell suspension were added to 500 g quantities of wheat mash in laboratory fermentation flasks to give initial viable cell numbers of 10^7 CFU/mL. […]

[3] = below pH 5; cited from earlier work

Compound	reduction of bacteria count (lactobacillus) [%]	viable cells after fermentation, Lb. fermentum (Lb. fermentum [1])	viable cells after fermentation, Lb. brevis (Lb. brevis)	viable cells after fermentation, Lb. fermentum (Lb. fermentum [2])	stability [3]
Virginiamycin	50	no viable cells	no viable cells	10^3 cells/mL	–
CC1(C)S[C@@H]2[C@H](NC(=O)Cc3ccccc3)C(=O)N2[C@H]1C(=O)O [Penicillin G]	–	–	–	practically no effect	rather poor stability
